Reference: patent publication US4067982A, “Aryl-substituted piperazinyl-alkylamino-uracils, -uracil ethers and -uracil thioethers as therapeutics” (priority 1976, dated 1978)
Like-named read-outs stand apart in the source and are kept apart here.

Assays:
mouse [1] = test: Analgesic effect, thermal stimulation of the tail of the mouse; type: in vivo; conditions: oral, 25% retardation, read-out: Retardation of the defense reaction upon thermal stimulation of the tail of the mouse by 25%
Excerpt: The analgesic effect was thereby determined as the delay in the reaction upon thermal stimulation of the tail of the mouse.

mouse [2] = test: PD50, rotating rod, mouse; type: in vivo; conditions: ip, read-out: PD50
Excerpt: The centrally inhibiting effect of the piperazinyl uracils of the invention in the mouse are apparent from Table IV. […] The selective action of the compounds of the invention on the central blood pressure mechanism can be used advantageously in human therapy in the treatment of hypertonic diseases.
a = Dose, at which an average of 50% of the mice fall from a rotating rod.

mouse [3] = test: SD50, sedation symptoms, mouse; type: in vivo
Excerpt: b = Dose, at which at an average 50% of the mice show the following symptoms: inhibition of the spontaneous motility, sadation, muscle relaxation, loss of gripping and holding ability on a horizontal wire net.

mouse [4] = test: Inhibition of the motility in the tread wheel, mouse; type: in vivo; conditions: for inhibition in vivo at 25 mg/kg: ip, 3 h, read-out: % Inhibition of the motility in the tread wheel by 25 mg/kg i.p.
mouse [5] = test: Prolongation of sleep induced by hexobarbital, mouse; type: in vivo; conditions: ip, read-out: % prolongation of sleep induced by hexobarbital by 15 mg/kg i.p.
Description: d = Percent prolongation of the duration of sleep of mice, which were administered 75 mg/kg hexobarbital, compared with the sleep duration of controls.

[6] = tested on: blood pressure of the narcotized rat; test: Lowering of the blood pressure, narcotized rat; type: in vivo; set-up: unit not given here; conditions: 30% lowering
[7] = tested on: blood pressure increasing effect of adrenaline; test: Inhibition of the pressor effect of adrenaline, despinalized rat; type: in vivo; conditions: iv, 0.001 mg/kg i.v. adrenaline, read-out: 50% inhibition of the press. effect after i.v. administration of adrenaline with
in vivo = conditions: mouse
[8] = tested on: histamine spasm of the isolated small intestine of the guinea pig; test: Antihistamine effect, histamine spasm of isolated small intestine
[9] = tested on: blood pressure of the narcotized cat; test: Lowering of the blood pressure, narcotized cat; type: in vivo; conditions: Felis catus, iv; for ED30: 30% lowering; for ED50: 50% lowering
[10] = tested on: carotid sinus relaxation reflex of the narcotized cat; test: Inhibition of the carotid sinus reflex, narcotized cat; type: in vivo; conditions: Felis catus, iv; for ED30: 30% inhibition; for ED50: 50% inhibition
[11] = tested on: blood pressure increasing effect of noradrenaline; test: Inhibition of the pressor effect of noradrenaline, despinalized rat; type: in vivo; conditions: iv, 0.001 mg/kg i.v. noradrenaline, read-out: 50% inhibition of the press. effect after i.v. administration of noradrenaline with
Hygroscopicity = type: physicochemical; conditions: solid product
[12] = Mus musculus, po, read-out: SD50
[13] = mouse, i.p., dose at which an average of 50% of the mice fall from a rotating rod
[14] = mouse, oral, dose at which 50% show inhibition of spontaneous motility, sedation, muscle relaxation, loss of gripping, read-out: SD50 (the source's name)
[15] = mouse, 25 mg/kg i.p., 5 mg/kg d-amphetamine-sulfate, 180 minutes
[16] = mouse, 15 mg/kg i.p., 75 mg/kg hexobarbital, vs controls
[17] = mouse, 5 mg/kg d-amphetamine-sulfate, 180 minutes

| Structure (SMILES) | ED25 (mouse [1]) [mg/kg] | lowering of the blood pressure by 30% by [6] | ED50 [7] [mg/kg] | ED50 (mouse [2]; [13]) [mg/kg] | ED50 (mouse [3]; [14]) [mg/kg] | change in vivo at 15 mg/kg (mouse [5]; [16]) [%] | LD50 (in vivo) [mg/kg] | ED50 [11] [mg/kg] | further results |
| --- | --- | --- | --- | --- | --- | --- | --- | --- | --- |
| Cc1c(N(C)C)c(=O)n(-c2ccccc2)n1C [Aminophenazone, reference compound] | 140 |  |  |  |  |  |  |  |  |
| CNC1=Nc2ccc(Cl)cc2C(c2ccccc2)=[N+]([O-])C1 [Chlordiazepoxyde, reference compound] |  |  |  |  |  |  |  |  | ED50 (mouse [2]; Mus musculus): 38 mg/kg; ED50 (mouse [3]; [12]): 8 mg/kg; inhibition in vivo at 25 mg/kg (mouse [4]; Mus musculus): 30%; change in vivo at 15 mg/kg (mouse [5]; Mus musculus): 324% |
| Cc1ccc(N2CCN(CCCNc3cc(=O)n(C)c(=O)n3C)CC2)cc1 [Example 1, 1,3-Dimethyl-4-(γ-[4-(p-tolyl)-piperazinyl-(1) ]-propylamino)-uracil] | 5 | 2.9 | 1.45 | 28 | 40 | 110 | 200 |  | inhibition in vivo at 25 mg/kg (mouse [4]; [15]): 36% |
| COc1ccc(OC)c(N2CCN(CCCNc3cc(=O)n(C)c(=O)n3C)CC2)c1 [Example 3, 1,3-Dimethyl-4-(γ-[4-(2,5-dimethoxyphenyl)-piperazinyl-(1)]-propylamino)-uracil] | 7 | 1.4 | 2.1 |  |  |  | 430 |  |  |
| CCOc1ccccc1N1CCN(CCCNc2cc(=O)n(C)c(=O)n2C)CC1 [Example 5, 1,3-Dimethyl-4-(γ[4-(o-ethoxyphenyl)-piperazinyl-(1)]-propylamino)-uracil] | 9 | 0.36 | 0.24 | 26 | 98 | 126 | 250 |  | inhibition in vivo at 25 mg/kg (mouse [4]; [15]): 46% |
| COc1cccc(N2CCN(CCCNc3cc(=O)n(C)c(=O)n3C)CC2)c1 [Example 7, 1,3-Dimethyl-4-(γ-[4-(m-methoxyphenyl)-piperazinyl-(1)]-propylamino)-uracil] |  |  |  |  |  |  |  |  | 50% inhibition of the histamine spasm of the isolated small intestine of the guinea pig [8]: 2e-08 g/mL |
| COc1ccccc1N1CCN(CCCOc2cc(=O)n(C)c(=O)n2C)CC1 [Example 9, 1,3-Dimethyl-4-(γ-[4-(o-methoxyphenyl)-piperazinyl-(1)]-propyloxy)-uracil] | 10 | > 3.4 | 0.15 | 12 | 30 | 140 | 400 |  | ED30 [9]: 0.03 mg/kg; ED50 [9]: 0.14 mg/kg; ED30 [10]: 0.17 mg/kg; ED50 [10]: 0.26 mg/kg; inhibition in vivo at 25 mg/kg (mouse [4]; [15]): 79% |
| Cn1c(NCCCN2CCN(c3ccccc3)CC2)cc(=O)n(C)c1=O [Example 11, 1,3-Dimethyl-4-(γ-[4-phenyl-piperazinyl-(1)]-propylamino)-uracil] |  | 0.48 | 1 | 11 | 70 | 130 | 120 | > 2.5 | % Inhibition of the motility in the tread wheel by 12 mg/kg i.p. (mouse [4]; [17]): 22% |
| Cc1ccccc1N1CCN(CCCNc2cc(=O)n(C)c(=O)n2C)CC1 [Example 12, 1,3-Dimethyl-4-(γ-[4-(o-tolyl)-piperazinyl(1)]-propylamino)-uracil] | 6.5 | 1.0 | 0.45 | 26 | 87 | 49 | 70 | 2.5 | ED30 [9]: 0.41 mg/kg; ED50 [9]: 2.4 mg/kg; % Inhibition of the motility in the tread wheel by 12 mg/kg i.p. (mouse [4]; [17]): 42%; 50% inhibition of the histamine spasm of the isolated small intestine of the guinea pig [8]: 3e-08 g/mL |
| Cn1c(NCCCN2CCN(c3ccc(Cl)cc3)CC2)cc(=O)n(C)c1=O [Example 13, 1,3-Dimethyl-4-(γ-[4-(p-chlorophenyl)-piperazinyl-(1)]-propylamino)-uracil] |  | > 3.4 | > 2.5 |  |  |  | 70 |  | 50% inhibition of the histamine spasm of the isolated small intestine of the guinea pig [8]: 1e-08 g/mL |
| COc1ccccc1N1CCN(CCCNc2c(C)c(=O)n(C)c(=O)n2C)CC1 [Example 14, 1,3,5-Trimethyl-4-(γ-[4-(o-methoxyphenyl)-piperazinyl-(1)]-propylamino)-uracil] |  | 0.13 | 0.045 | 12 | 90 | 152 | 140 | 1.2 | inhibition in vivo at 25 mg/kg (mouse [4]; [15]): 21% |
| CCCCc1c(NCCCN2CCN(c3ccccc3OC)CC2)n(C)c(=O)n(C)c1=O [Example 15, 1,3-Dimethyl-4-(γ-[4-(o-methoxyphenyl)-piperazinyl-(1)]-propylamino)-5-n-butyl-uracil] |  | 0.36 | 0.028 |  |  |  | 130 | 2.8 |  |
| COc1ccccc1N1CCN(CCCNc2c([N+](=O)[O-])c(=O)n(C)c(=O)n2C)CC1 [Example 16, 1,3-dimethyl-4-(γ-[4-(o-methoxyphenyl)-piperazinyl-(1)]-propylamino)-5-nitro-uracil] | 10 | 1.6 | 0.17 |  |  |  | 600 |  | ED30 [9]: 0.21 mg/kg; ED50 [9]: 1 mg/kg; ED30 [10]: 0.6 mg/kg; ED50 [10]: 2 mg/kg |
| COc1ccccc1N1CCN(C(C)CNc2cc(=O)n(C)c(=O)n2C)CC1 (stereo not drawn) [Example 17, 1,3-Dimethyl-4-(β-[4-(o-methoxyphenyl)-piperazinyl-(1)]-propylamino)-uracil] |  | 3.0 | 0.16 |  |  |  | 220 | 2.3 |  |
| COc1ccccc1N1CCN(CCCNc2c(Br)c(=O)n(C)c(=O)n2C)CC1 [Example 18, 1,3-Dimethyl-4-(γ-[4-(o-methoxyphenyl)-piperazinyl-(1)]-propylamino)-5-bromo-uracil-dihydrobomide] |  |  |  |  |  |  |  |  | ED30 [9]: 0.15 mg/kg; ED50 [9]: > 0.5 mg/kg; ED30 [10]: 0.13 mg/kg; ED50 [10]: 1.1 mg/kg |
| COc1ccccc1N1CCN(CCCNc2c(N=O)c(=O)n(C)c(=O)n2C)CC1 [Example 19, 1,3-Dimethyl-4-(γ-[4-(o-methoxyphenyl)-piperazinyl-(1)]-propylamino)-5-nitroso-uracil] |  |  |  |  |  |  |  |  | hygroscopicity (Hygroscopicity): hygroscopic |
| COc1ccccc1N1CCN(CCCNc2c(N)c(=O)n(C)c(=O)n2C)CC1 [Example 20, 1,3-Dimethyl-4-(γ-[4-(o-methoxyphenyl)-piperazinyl-(1)]-propylamino)-5-amino-uracil] |  | 0.11 | 0.045 | 34 | 80 | 62 | 500 | 1.6 | ED30 [9]: 0.05 mg/kg; ED50 [9]: 0.15 mg/kg; ED30 [10]: 0.06 mg/kg; ED50 [10]: 0.15 mg/kg; inhibition in vivo at 25 mg/kg (mouse [4]; [15]): 42% |
| Cc1ccccc1N1CCN(CCCNc2c(N=O)c(=O)n(C)c(=O)n2C)CC1 [Example 61, 1,3-Dimethyl-4-([4-(o-tolyl)-piperazinyl-(1)]-propyl-amino)-5-nitroso-uraci] |  | 0.5 | 0.39 |  |  |  | 600 | 3.7 |  |
| CCCC(C)(COC(N)=O)COC(N)=O [Meprobamate, reference compound] |  |  |  |  |  |  |  |  | ED50 (mouse [2]; Mus musculus): 95 mg/kg; ED50 (mouse [3]; [12]): 300 mg/kg; inhibition in vivo at 25 mg/kg (mouse [4]; Mus musculus): 28%; change in vivo at 15 mg/kg (mouse [5]; Mus musculus): 18% |
| CN1CCC(OC(c2ccccc2)c2ccccc2)CC1 [Piprinhydrinate, reference compound] |  |  |  |  |  |  |  |  | 50% inhibition of the histamine spasm of the isolated small intestine of the guinea pig [8]: 1.5e-08 g/mL |
